# Experimental data: patent US20230382863A1, “MEK INHIBITORS AND USES THEREOF” (Ikena Oncology, Inc., priority 2022, published 2023)
# How the values were obtained:
# [1] = biological target: uMEK/BRAF (Homo sapiens (Human), UniProt Q02750); assay: MEK-RAF Binding Assay (uMEK/BRAF HTRF)
# [2] = system: pERK HCT-116 (G13D); assay: pERK HCT-116 (G13D) ICW (4 hour); type: cell-based; conditions: Homo sapiens, read-out: pERK HCT-116 (G13D) ICW (4 hour): Average IC50 (nM)
# [3] = Cassette pharmacokinetics studies in mice; type: in vivo; conditions: male, Balb/c, plasma; Mouse, PO, 5 mg/kg
# Procedure: Pharmacokinetics studies were conducted using cassette dosing protocols, with test compounds administered per mouse. Treatment groups were 3 mice (˜6-8 weeks old, ˜20-30 g Balb/c male mice) per route of administration. Compounds were formulated in 5% DMSO and 95% PEG400 with final concentrations of 0.5 mg/mL for IV and PO dosing. Compounds were dosed at 2 mg/kg for IV dosing and 5 mg/kg for PO dosing. Blood samples were withdrawn at 0.083, 0.25, 0.5, 1.0, 2.0, 4.0, 6.0, 8.0, and 24 hours following IV dosing, and 0.25, 0.5, 1.0, 2.0, 4.0, 6.0, 8.0, and 24 hours following PO dosing. Blood samples were centrifuged at 4,000 g for 5 minutes at 4° C. to obtain plasma samples. Plasma samples were diluted with acetonitrile containing internal standard, vortexed for 30 seconds, then centrifuged at 4,000 rpm for 15 minutes at 4° C. The supernatant was diluted with water, and compound concentration was determined by HPLC/MS/MS compared to calibration standards of 0.5-1,000 ng/mL.
# Where route is listed as “IV*”, the compound was dosed IV at 1 mg/kg.
# [4] = system: Phosphorylation of ERK1/2 in AsPC1 cells; assay: 4 hour pERK1/2 HTRF Assay; type: cell-based; conditions: Homo sapiens, ASPC1, read-out: pERK AsPC-1 HTRF (4 hour): Average IC50 (nM); AsPC-1, 4 hour
# Procedure: AsPC1 cells were seeded at 20,000 cells/well overnight in 96-well plates, then treated with a 12-point dose response of compounds (Starting dose of 3000 nM and 3-fold dilution) for 4 hours. AsPC1 cells are a K-Ras mutant cell line. Phosphorylation of ERK1/2 on residues Thr202 and Tyr204 were detected using a Homogenous Time-Resolved Fluorescence (HTRF) assay (Cisbio Cat #64ERKPEG). Briefly, ERK phosphorylation was detected using a sandwich assay format using two phospho-ERK specific antibodies, one labelled with EU^3+-Cryptate (donor) and the second with d2 (acceptor). The Fluorescence Resonance Energy Transfer (FRET) towards the d2 acceptor was detected at a wavelength of 665 nm. ERK1/2 phosphorylation levels were normalized to total ERK1/2 protein levels in each well. IC50 values were determined by fitting a variable slope, four parameters curve to the compound concentration to normalized Phospho-ERK1/2 relationship.
Compound,IC50 [4] [nM],further results
"Cc1c(Oc2cccc(N=S(C)(N)=O)c2)c(C(=O)NC2CC2)c(Nc2ccc(I)cc2F)n(C)c1=O (stereo in doubt) [Compound I-7, (S)-4-(3-((amino(methyl)oxo-lambda6-sulfaneylidene)amino)phenoxy)-N-cyclopropyl-2-((2-fluoro-4-iodophenyl)amino)-1,5-dimethyl-6-oxo-1,6-dihydropyridine-3-carboxamide]",–,IC50 [1]: < 100 nM; IC50 [2]: < 100 nM
CNS(=O)(=O)Nc1cc(Oc2c(C(=O)NC3CC3)c(Nc3ccc(I)cc3F)n(C)c(=O)c2C)ccc1Cl [Compound I-19],–,IC50 [1]: 100 to 1000 nM
CNS(=O)(=O)Nc1cc(C)cc(Oc2c(C(=O)NC3CC3)c(Nc3ccc(I)cc3F)n(C)c(=O)c2C)c1 [Compound I-21],–,IC50 [1]: 100 to 1000 nM
CNS(=O)(=O)Nc1cccc(Oc2c(C(=O)NC3CC3)c(Nc3ccc(I)cc3F)n(C)c(=O)c2C)c1C(F)(F)F [Compound I-37],–,AUC(0-inf) [3]: 12900 ng·h/mL; AUC(0-t) [3]: 12900 ng·h/mL; Cmax [3]: 1730 ng/mL; Tmax [3]: 1.7 h; half-life [3]: 1.99 h
CNS(=O)(=O)Nc1c(F)ccc(Oc2c(C(=O)NC3CC3)c(Nc3ccc(I)cc3F)n(C)c(=O)c2C)c1Cl [Compound I-38],< 100,IC50 [1]: < 100 nM
CNS(=O)(=O)Nc1cccc(Oc2c(C(=O)NCC3CC3)c(Nc3ccc(I)cc3F)n(C)c(=O)c2C)c1Cl [Compound I-39],< 100,IC50 [1]: < 100 nM
CNS(=O)(=O)Nc1cccc(Nc2c(C(=O)OC3CC3)c(Nc3ccc(I)cc3F)n(C)c(=O)c2C)c1Cl [Compound I-47],< 100,–
CNS(=O)(=O)Nc1ccc(Oc2c(C(=O)NC3CC3)c(Nc3ccc(I)cc3F)n(C)c(=O)c2C)c(Cl)c1 [Compound I-63],100 to 1000,IC50 [1]: 100 to 1000 nM
CNS(=O)(=O)Nc1ccc(Oc2c(C(=O)NC3CC3)c(Nc3ccc(I)cc3F)n(C)c(=O)c2C)cc1 [Compound I-64],100 to 1000,IC50 [1]: 100 to 1000 nM; AUC(0-inf) [3]: 505 ng·h/mL; AUC(0-t) [3]: 492 ng·h/mL; Cmax [3]: 231 ng/mL; Tmax [3]: 0.8 h; half-life [3]: 2.1 h
CNS(=O)(=O)n1ccc2ccc(Oc3c(C(=O)NC4CC4)c(Nc4ccc(I)cc4F)n(C)c(=O)c3C)cc21 [Compound I-78],1000 to 10000,IC50 [1]: 100 to 1000 nM
CNS(=O)(=O)Nc1cccc(Oc2c(C(=O)N3CCC3)c(Nc3ccc(I)cc3F)n(C)c(=O)c2C)c1Cl [Compound I-79],< 100,IC50 [1]: 100 to 1000 nM
Cc1c(Oc2cccc(N)c2Cl)c(C(=O)NC2CC2)c(Nc2ccc(I)cc2F)n(C)c1=O [Compound I-86],< 100,IC50 [1]: < 100 nM
CCc1c(Oc2cccc(NS(=O)(=O)NC)c2Cl)c(C(=O)NC2CC2)c(Nc2ccc(I)cc2F)n(C)c1=O [Compound I-92],100 to 1000,–
CNS(=O)(=O)Nc1ccnc(Oc2c(C(=O)NC3CC3)c(Nc3ccc(I)cc3F)n(C)c(=O)c2C)c1Cl [Compound I-93],< 100,–
Cc1c(Oc2cccc(N(C3CC3)S(=O)(=O)NC3CC3)c2Cl)c(C(=O)NC2CC2)c(Nc2ccc(I)cc2F)n(C)c1=O [Compound I-94],100 to 1000,–
Cc1c(Oc2cccc(N(CC(F)(F)F)S(=O)(=O)NC3CC3)c2Cl)c(C(=O)NC2CC2)c(Nc2ccc(I)cc2F)n(C)c1=O [Compound I-95],< 100,–
CNS(=O)(=O)Nc1cccc(Oc2c(C(=O)NC3CC3)c(Nc3ccc(I)cc3F)n(C)c(=O)c2C)n1 [Compound I-96],100 to 1000,–
CNS(=O)(=O)N(CC(F)(F)F)c1cccc(Oc2c(C(=O)NC3CC3)c(Nc3ccc(I)cc3F)n(C)c(=O)c2C)c1Cl [Compound I-97],100 to 1000,–
CCN(c1cccc(Oc2c(C(=O)NC3CC3)c(Nc3ccc(I)cc3F)n(C)c(=O)c2C)c1Cl)S(=O)(=O)NC1CC1 [Compound I-98],100 to 1000,–
Cc1c(Oc2cccc(N(C)S(=O)(=O)NC3CC3)c2Cl)c(C(=O)NC2CC2)c(Nc2ccc(I)cc2F)n(C)c1=O [Compound I-99],< 100,–
CNS(=O)(=O)N(C)c1cccc(Oc2c(C(=O)NC3CC3)c(Nc3ccc(I)cc3F)n(C)c(=O)c2C)c1Cl [Compound I-100],< 100,–
CCN(C1CC1)S(=O)(=O)Nc1cccc(Oc2c(C(=O)NC3CC3)c(Nc3ccc(I)cc3F)n(C)c(=O)c2C)c1Cl [Compound I-101],< 100,–

Compound,IC50 [4] [nM],further results
Cc1c(Oc2cccc(NS(=O)(=O)N(C)C3CC3)c2Cl)c(C(=O)NC2CC2)c(Nc2ccc(I)cc2F)n(C)c1=O [Compound I-102],< 100,–
Cc1c(Oc2cccc(NS(=O)(=O)N3CCC3)c2C(F)(F)F)c(C(=O)NC2CC2)c(Nc2ccc(I)cc2F)n(C)c1=O [Compound I-103],< 100,–
Cc1c(Oc2cccc(NS(=O)(=O)N3CC(F)C3)c2Cl)c(C(=O)NCC(F)(F)F)c(Nc2ccc(I)cc2F)n(C)c1=O [Compound I-104],< 100,–
Cc1c(Oc2cccc(NS(=O)(=O)N(C)C)c2Cl)c(C(=O)NCC(F)(F)F)c(Nc2ccc(I)cc2F)n(C)c1=O [Compound I-105],< 100,–
Cc1c(Oc2cccc(NS(=O)(=O)N3CCC3)c2Cl)c(C(=O)NCC(F)(F)F)c(Nc2ccc(I)cc2F)n(C)c1=O [Compound I-106],< 100,–
Cc1c(Oc2cccc(NS(=O)(=O)N3CC(F)C3)c2Cl)c(C(=O)NC2CC2)c(Nc2ccc(I)cc2F)n(C)c1=O [Compound I-107],< 100,–
Cc1c(Oc2cccc(NS(=O)(=O)N3CCC3)c2Cl)c(C(=O)NC2CC2)c(Nc2ccc(I)cc2F)n(C)c1=O [Compound I-108],< 100,–
CNS(=O)(=O)Nc1cccc(Oc2c(C(=O)NC3CC3)c(Nc3ccc(I)cc3F)n(C)c(=O)c2C)c1Cl [Compound I-109],< 100,–
CCN(CC)S(=O)(=O)Nc1cccc(Oc2c(C(=O)NC3CC3)c(Nc3ccc(I)cc3F)n(C)c(=O)c2C)c1Cl [Compound I-110],< 100,–
CCN(C)S(=O)(=O)Nc1cccc(Oc2c(C(=O)NC3CC3)c(Nc3ccc(I)cc3F)n(C)c(=O)c2C)c1Cl [Compound I-111],< 100,–
Cc1c(Oc2cccc(NS(N)(=O)=O)c2Cl)c(C(=O)NC2CC2)c(Nc2ccc(I)cc2F)n(C)c1=O [Compound I-112],< 100,AUC(0-inf) [3]: 5830 ng·h/mL; AUC(0-t) [3]: 5370 ng·h/mL; Cmax [3]: 979 ng/mL; Tmax [3]: 1.3 h; half-life [3]: 2.27 h
Cc1c(Oc2cccc(NS(=O)(=O)N(C)C)c2Cl)c(C(=O)NC2CC2)c(Nc2ccc(I)cc2F)n(C)c1=O [Compound I-113],< 100,–
CNS(=O)(=O)Nc1ccnc(Oc2c(C(=O)NC3CC3)c(Nc3ccc(I)cc3F)n(C)c(=O)c2C)c1OC [Compound I-115],< 100,–
CNS(=O)(=O)Nc1cncc(Oc2c(C(=O)NC3CC3)c(Nc3ccc(I)cc3F)n(C)c(=O)c2C)c1OC [Compound I-116],1000 to 10000,–
CCn1c(Nc2ccc(I)cc2F)c(C(=O)NC2CC2)c(Oc2cccc(NS(=O)(=O)NC)c2Cl)c(C2CC2)c1=O [Compound I-117],1000 to 10000,–
CNS(=O)(=O)Nc1cccc(Oc2c(C(=O)NCC[C@H](O)CO)c(Nc3ccc(I)cc3F)n(C)c(=O)c2C)c1Cl [Compound I-118],< 100,–
CNS(=O)(=O)Nc1cccc(Oc2c(C(=O)NCC[C@@H](O)CO)c(Nc3ccc(I)cc3F)n(C)c(=O)c2C)c1Cl [Compound I-119],< 100,–
CCc1c(Oc2cccc(NS(=O)(=O)NC)c2Cl)c(C(=O)NC2CC2)c(Nc2ccc(I)cc2F)n(C2CC2)c1=O [Compound I-120],1000 to 10000,–
CNS(=O)(=O)Nc1nccc(Oc2c(C(=O)NC3CC3)c(Nc3ccc(I)cc3F)n(C)c(=O)c2C)c1Cl [Compound I-121],< 100,–
CNS(=O)(=O)Nc1cncc(Oc2c(C(=O)NC3CC3)c(Nc3ccc(I)cc3F)n(C)c(=O)c2C)c1Cl [Compound I-122],100 to 1000,–
CNS(=O)(=O)Nc1cccc(Oc2c(C(=O)N(C)C3CCC3)c(Nc3ccc(I)cc3F)n(C)c(=O)c2C)c1 [Compound I-133],–,AUC(0-inf) [3]: 28 ng·h/mL; AUC(0-t) [3]: 27 ng·h/mL; Cmax [3]: 41.2 ng/mL; Tmax [3]: 0.2 h; half-life [3]: 0.4 h
"N-cyclopropyl-4-((2,2-dioxido-3,4-dihydro-1H-benzo[c][1,2,6]thiadiazin-7-yl)oxy)-2-((2-fluoro-4-iodophenyl)amino)-1,5-dimethyl-6-oxo-1,6-dihydropyridine-3-carboxamide [Compound I-14]",–,IC50 [1]: 100 to 1000 nM
